Biological target: histone deacetylase (HDAC)
Experiment: Inhibition of Histone Deacetylase Enzymatic Activity
Assay type: biochemical
Conditions: substrate Boc-Lys(Ac)-AMC, Fluor-de-Lys developer, 37° C., 20 min; against one or more of HDAC-1 to HDAC-11, SirT1 to SirT7 (isoform not given); read-out: HDAC Inhibitory Activity (IC50)
Procedure: The following protocol is used to assay the compounds of the invention. In the assay, the buffer used is 25 mM HEPES, pH 8.0, 137 mM NaCl, 2.7 mM KCl, 1 mM MgCl2 and the substrate is Boc-Lys(Ac)-AMC in a 50 mM stock solution in DMSO. The enzyme stock solution is 4.08 μg/mL in buffer.
The compounds are pre-incubated (2 μl in DMSO diluted to 13 μl in buffer for transfer to assay plate) with enzyme (20 μl of 4.08 μg/mL) for 10 min at room temperature (35 μl pre-incubation volume). The mixture is pre-incubated for 5 min at room temperature. The reaction is started by bringing the temperature to 37° C. and adding 16 μl substrate. Total reaction volume is 50 μl. […] A plate is incubated in the dark for 10 min at room temperature before reading (λEX=360 nm, λEm=470 nm, Cutoff filter at 435 nm).
In the table, “A” indicates inhibitory activity at a concentration of <0.05 μM; “B” indicates inhibitory activity at a concentration >0.05 μM but <0.5 μM, “C” indicates inhibitory activity at >0.5 μM but <2 μM and “D” indicates inhibitory activity at a concentration of >2 μM but <10 μM.

IC50	SMILES
500 to 2000 nM	O=C(CCO[C@@H]1C[C@@H](C(=O)Nc2cccc3cccnc23)N(C(=O)OCc2ccccc2)C1)NO [Compound 112a, (2S,4R)-benzyl 4-(3-(hydroxyamino)-3-oxopropoxy)-2-(quinolin-8-ylcarbamoyl)pyrrolidine-1-carboxylate]
50 to 500 nM	O=C(CCCCCN1C(=O)[C@@H](Cc2c[nH]c3ccccc23)NC(=O)c2ccccc21)NO [Compound 68b8, 6-((R)-3-((1H-Hz, indol-3-yl)methyl)-2,3,4,5-tetrahydro-2,5-dioxobenzo[e][1,4]diazepin-1-yl)-N-hydroxyhexanamide]
< 50 nM	O=C(NO)c1ccc(CN2c3ccccc3NC(=O)[C@H]2Cc2ccoc2)cc1 [Compound 54b20, (R)-4-((2-(furan-3-ylmethyl)-3-oxo-3,4-dihydroquinoxalin-1(2H)-yl)methyl)-N-hydroxybenzamide]
< 50 nM	CC(C)(C)OC(=O)CC[C@@H]1C(=O)Nc2ccccc2N1Cc1ccc(C(=O)NO)cc1 [Compound 54b12, (R)-tert-butyl 3-(1-(4-(hydroxycarbamoyl)benzyl)-3-oxo-1,2,3,4-tetrahydroquinoxalin-2-yl)propanoate]
50 to 500 nM	CC(C)C[C@H]1NC(=O)c2ccccc2N(CCCCCC(=O)NO)C1=O [Compound 68b12, 6-((R)-2,3,4,5-tetrahydro-3-isobutyl-2,5-dioxobenzo[e][1,4]diazepin-1-yl)-N-amide]
50 to 500 nM	Nc1ccccc1NC(=O)c1ccc(CN2c3ccccc3NC(=O)[C@@H]2Cc2cccs2)cc1 [Compound 54c, (S)—N-(2-aminophenyl)-4-((3-oxo-2-(thiophen-2-ylmethyl)-3,4-dihydroquinoxalin-1(2H)-yl)methyl)benzamide]
2000 to 10000 nM	CC(C)C[C@H]1NC(=O)c2ccccc2N(CCCCCC(=O)Nc2cscc2N)C1=O [Compound 72, N-(4-Aminothiophen-3-yl)-6-((R)-2,3,4,5-tetrahydro-3-isobutyl-2,5-dioxobenzo[e][1,4]diazepin-1-yl)hexanamide]
50 to 500 nM	O=C(NO)c1ccc(CN2c3ccccc3NC(=O)[C@H]2CC2CCCCC2)cc1 [Compound 54b8, (R)-4-((2-(cyclohexylmethyl)-3-oxo-3,4-dihydroquinoxalin-1(2H)-yl)methyl)-N-hydroxybenzamide]
50 to 500 nM	O=C(CCCCCC1NC(=O)c2ccccc2N(CCc2c[nH]c3ccccc23)C1=O)NO (centres unmarked) [Compound 79, 6-(1-(2-(1H-Indol-3-yl)ethyl)-2,3,4,5-tetrahydro-2,5-dioxo-1H-benzo[e][1,4]diazepin-3-yl)-N-hydroxyhexanamide]
< 50 nM	O=C(NO)c1ccc(CN2C(=O)CNC(=O)[C@H]2Cc2ccccc2)cc1 [Compound 136b, (R)-4-((2-Benzyl-3,6-dioxopiperazin-1-yl)methyl)-N-hydroxybenzamide]
50 to 500 nM	CC(C)[C@@H]1Nc2ccc(NC(=O)CCCCCCC(=O)NO)cc2NC1=O [Compound 24a, N1—((S)-1,2,3,4-Tetrahydro-2-isopropyl-3-oxoquinoxalin-6-yl)-N8-hydroxyoctanediamide]
50 to 500 nM	O=C(/C=C/c1ccc2c(c1)NC(=O)[C@@H](Cc1c[nH]c3ccccc13)N2)NO [Compound 66f, (E)-3-((R)-2-((1H-indol-3-yl)methyl)-1,2,3,4-tetrahydro-3-oxoquinoxalin-6-yl)-N-hydroxyacrylamide]
50 to 500 nM	O=C(CCCCC[C@@H]1NC(=O)c2cc(NC(=O)OCc3ccccc3)ccc2NC1=O)NO [Compound 92b, (S)-Benzyl 3-(6-(hydroxyamino)-6-oxohexyl)-2,5-dioxo-2,3,4,5-tetrahydro-1H-benzo[e][1,4]diazepin-7-ylcarbamate]

SMILES	IC50
O=C(NO)c1ccc(CN2c3ccccc3NC(=O)[C@H]2Cc2cccs2)cc1 [Compound 54a2, 4-(((R)-2,3-Dihydro-2-oxo-3-((thiophen-2-yl)methyl)quinoxalin-4(1H)-yl)methyl)-N-hydroxybenzamide]	< 50 nM

Source: patent US20070155730A1, “Benzodiazepine And Benzopiperazine Analog Inhibitors Of Histone Deacetylase” (METHYLGENE, INC., priority 2005, published 2007)
